Experimental data as given in article PMC7873978, “A Novel Lipoate-Protein Ligase, Mhp-LplJ, Is Required for Lipoic Acid Metabolism in Mycoplasma hyopneumoniae” (Frontiers in Microbiology, 2021).

Assays:
[1] = target: T1, Mhp-LplJ (lipoate-protein ligase, MHP_RS00640) (Mesomycoplasma hyopneumoniae, UniProt E4QSS7); test: in vitro octanoate ligation to apo-PdhD, gel shift assay; assay type: biochemical
T1 construct: gene lplA; hexa-histidine-tagged Mhp-LplJ (pET22b)
T1 sequence (E4QSS7 1-336): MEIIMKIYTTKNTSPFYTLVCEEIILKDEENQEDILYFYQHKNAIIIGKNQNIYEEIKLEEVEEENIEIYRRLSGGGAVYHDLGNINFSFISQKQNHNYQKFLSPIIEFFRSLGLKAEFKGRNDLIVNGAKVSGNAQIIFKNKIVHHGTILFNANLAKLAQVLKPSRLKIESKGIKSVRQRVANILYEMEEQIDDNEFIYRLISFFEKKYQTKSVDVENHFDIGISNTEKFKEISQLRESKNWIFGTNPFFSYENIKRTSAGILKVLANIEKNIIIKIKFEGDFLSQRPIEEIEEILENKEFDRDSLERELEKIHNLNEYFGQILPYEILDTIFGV

[2] = target: T2, E. coli LplA (lipoate-protein ligase A) (Escherichia coli, UniProt P32099); test: in vitro lipoate ligation to apo-PdhD, anti-lipoic acid western blot (positive control enzyme); assay type: biochemical
T2 construct: hexa-histidine-tagged E. coli LplA (pET32a)
T2 sequence (P32099 2-338): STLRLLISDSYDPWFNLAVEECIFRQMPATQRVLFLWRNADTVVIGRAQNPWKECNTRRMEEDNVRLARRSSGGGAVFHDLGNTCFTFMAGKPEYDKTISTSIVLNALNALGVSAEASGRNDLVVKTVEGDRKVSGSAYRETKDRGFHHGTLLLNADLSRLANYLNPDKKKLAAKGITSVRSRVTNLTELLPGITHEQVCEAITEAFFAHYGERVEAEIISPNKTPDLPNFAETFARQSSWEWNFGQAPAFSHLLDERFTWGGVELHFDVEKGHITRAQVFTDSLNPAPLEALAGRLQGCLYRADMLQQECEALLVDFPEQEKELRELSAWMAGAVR

[3] = target: T1, Mhp-LplJ (lipoate-protein ligase, MHP_RS00640); test: SPR (Biacore 8K, CM5, immobilized Mhp-LplJ), single-site kinetics fit; assay type: binding
[4] = target: T1, Mhp-LplJ (lipoate-protein ligase, MHP_RS00640); test: SPR (Biacore 8K), single-site affinity fit; also inhibits PdhD lipoylation in vitro at […]; assay type: binding

CCCCCCCC(=O)O [octanoic acid] was tested, and the “in vitro octanoate ligation to apo-PdhD, gel shift assay” value [1] was “Mhp-LplJ could able to catalyze the attachment of free octanoic acid to PdhD”.

With O=C(O)CCCC[C@@H]1CCSS1 [lipoic acid, (R)-5-(1,2-dithiolane-3-yl) pentanoic acid] the “in vitro lipoate ligation to apo-PdhD, anti-lipoic acid western blot (positive c)” value [2] was “PdhD was successfully modified by E. coli LplA in vitro in the presence of lipoic acid” and the Kd [3] was 24.1 ± 1.61 µM.

Molecule O=C(O)CCCCCCCBr [8-BrO, 8-bromooctanoic acid] has a Kd [4] of 29.8 ± 3.62 µM.
